Results published in the supplement of paper PMC10307832.

How the values were obtained:
Experiment in all cases: relative viability (nuclei count vs DMSO), 5 days (fraction); higher = more cells survive
QS11 + Alpelisib = compound: C1CC2=C(C1)C=C(C=C2)OC3=NC(=C4C(=N3)N(C=N4)CC5=CC=C(C=C5)C6=CC=CC=C6)N[C@@H](CC7=CC=CC=C7)CO [QS11] + Cc1nc(NC(=O)N2CCC[C@H]2C(N)=O)sc1-c1ccnc(C(C)(C)C(F)(F)F)c1 [Alpelisib] (partner 2 µM)
Outline: (§1)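 Lung cancer cell lines were seeded in 1536-well plates and dosed by pin tool the next day, with either a single drug or a fixed anchor-drug dose combined with five library-drug doses (not always all listed) spaced in √10 steps. Five days later, one step fixed the cells and stained their nuclei (final 0.05% Triton X-100, 1% formaldehyde, 1 ug/ml Hoechst), and nuclei were counted on 4× images. Relative viability is the nuclei count in treated wells divided by the count in vehicle wells, and each value is the median of duplicate plates.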

AZ628 + Decitabine = compound: CC1=C(C=C(C=C1)NC(=O)C2=CC(=CC=C2)C(C)(C)C#N)NC3=CC4=C(C=C3)N=CN(C4=O)C [AZ628] + Nc1ncn([C@H]2C[C@H](O)[C@@H](CO)O2)c(=O)n1 [Decitabine] (partner 2 µM)
Outline: as §1

[1] = compound: C[As](C)SC[C@H](NC(=O)CC[C@H](N)C(=O)O)C(=O)NCC(=O)O [Darinaparsin] + CS(=O)(=O)N1CCN(Cc2cc3nc(-c4cccc5[nH]ncc45)nc(N4CCOCC4)c3s2)CC1 [Pictilisib] (partner 1 µM)
Outline: as §1

[2] = compound: C[As](C)SC[C@H](NC(=O)CC[C@H](N)C(=O)O)C(=O)NCC(=O)O [Darinaparsin] + N=C(N)NC(=N)NCCc1ccccc1 [Phenformin] (partner 250 µM)
Outline: as §1

Cell Line	relative viability (QS11 + Alpelisib; first compound 0.08 µM)	relative viability (QS11 + Alpelisib; first compound 0.253 µM)	relative viability (QS11 + Alpelisib; first compound 0.8 µM)	relative viability (QS11 + Alpelisib; first compound 2.53 µM)	relative viability (QS11 + Alpelisib; first compound 8 µM)	relative viability (AZ628 + Decitabine; first compound 0.08 µM)	relative viability (AZ628 + Decitabine; first compound 0.253 µM)	relative viability (AZ628 + Decitabine; first compound 0.8 µM)	relative viability (AZ628 + Decitabine; first compound 2.53 µM)	relative viability (AZ628 + Decitabine; first compound 8 µM)	relative viability ([1]; first compound 0.08 µM)	relative viability ([1]; first compound 0.8 µM)	relative viability ([1]; first compound 2.53 µM)	relative viability ([1]; first compound 8 µM)	relative viability ([2]; first compound 0.08 µM)	relative viability ([2]; first compound 0.8 µM)	relative viability ([2]; first compound 2.53 µM)	relative viability ([2]; first compound 8 µM)
NCI-H460	0.515	0.498	0.554	0.3	0.0919	0.512	0.456	0.38	0.532	0.165	0.479	0.415	0.373	0.406	0.553	0.557	0.506	0.884
NCI-H520		0.912	0.921	0.92	0.986	0.563	0.488	0.547	0.472	0.382	0.287	0.339	0.241	0.277	0.669	0.481	0.453	0.625
NCI-H596	0.4	0.494	0.467	0.468	0.443	1.02	1.12	1.13	1.1	0.933	0.396	0.397	0.416	0.378	0.891	0.737	0.677	0.745
NCI-H647	1.24	1.25	1.02	1.08	0.862	0.383	0.452	0.329	0.383	0.332	0.449	0.396	0.488	0.47	0.62	0.479	0.474	0.696
NCI-H650	0.988	1	1.14	0.909	1.18	0.349	0.396	0.46	0.335	0.336	0.856	0.834	0.922	1.13	0.476	0.479	0.428	0.484
NCI-H661	0.657	0.599	0.658	0.637	0.646	0.601	0.491	0.445	0.451	0.482	0.422	0.4	0.491	0.42	0.261	0.25	0.299	0.275
NCI-H727	0.509	0.99	0.593	0.54	0.325	0.918			0.644	0.345	0.405	0.425	0.297	0.465	0.405	0.416	0.569	0.475
NCI-H838	1.1	0.954	0.755	0.919	0.884	0.49	0.504	0.476	0.455	0.479	0.481	0.407	0.39	0.472	0.596	0.508	0.486	0.638
NCI-H1355	0.776	0.748	0.779	0.689	0.763	0.414	0.322	0.381	0.344	0.265	0.445	0.37	0.451	0.456	0.45	0.459	0.382	0.412
NCI-H1395		1.2	1.12	0.912	1.53	0.678	0.698	0.667	0.647	0.788	0.538	0.617	0.619	0.568	0.457	0.471	0.409	0.459
NCI-H1437	1.1	1.13	0.834	0.9	0.879	0.606	0.548	0.531	0.613	0.659	0.468	0.409	0.395	0.391	0.327	0.298	0.358	0.281
NCI-H1651	1.06	1.1	0.822	0.896	0.713	0.67	0.571	0.653	0.683	0.593	0.721	0.554	0.471	0.865	0.351	0.302	0.298	0.357
NCI-H1666	0.917	1.03	0.708	0.587	0.382	0.744	0.691	0.625	0.62	0.657	0.418	0.458	0.454	0.53	0.623	0.545	0.617	0.575
NCI-H1734	0.681	0.719	0.697	0.581	0.65	0.515	0.549	0.5	0.457	0.344	0.534	0.473	0.421	0.559	0.464	0.409	0.363	0.424
NCI-H1755	1.07	0.947	0.632	0.835	0.857	0.763	0.691	0.718	0.73	0.676	0.461	0.398	0.355	0.38	0.671	0.598	0.545	0.632
NCI-H1792		0.708	0.539	0.609	0.785	0.605	0.532	0.514	0.476	0.121	0.169	0.235	0.243	0.356	0.334	0.258		0.205
NCI-H1793	0.719	0.645	0.637	0.827	0.791	0.616	0.442	0.458	0.441	0.184	0.25	0.31	0.355	0.299	0.358	0.435	0.327	0.422
NCI-H1915	1.06	1.16		1.06	0.999	0.271	0.259	0.267	0.254	0.169	0.99	0.902	0.955	0.991	0.404	0.373	0.359	0.375

Cell Line	relative viability (QS11 + Alpelisib; first compound 0.08 µM)	relative viability (QS11 + Alpelisib; first compound 0.253 µM)	relative viability (QS11 + Alpelisib; first compound 0.8 µM)	relative viability (QS11 + Alpelisib; first compound 2.53 µM)	relative viability (QS11 + Alpelisib; first compound 8 µM)	relative viability (AZ628 + Decitabine; first compound 0.08 µM)	relative viability (AZ628 + Decitabine; first compound 0.253 µM)	relative viability (AZ628 + Decitabine; first compound 0.8 µM)	relative viability (AZ628 + Decitabine; first compound 2.53 µM)	relative viability (AZ628 + Decitabine; first compound 8 µM)	relative viability ([1]; first compound 0.08 µM)	relative viability ([1]; first compound 0.8 µM)	relative viability ([1]; first compound 2.53 µM)	relative viability ([1]; first compound 8 µM)	relative viability ([2]; first compound 0.08 µM)	relative viability ([2]; first compound 0.8 µM)	relative viability ([2]; first compound 2.53 µM)	relative viability ([2]; first compound 8 µM)
NCI-H1944	0.794	0.896		0.826	0.846	0.426	0.434	0.414	0.416	0.282	0.359	0.307	0.348	0.374	0.217	0.207	0.216	0.192
NCI-H1975	0.654	0.727	0.747	0.887	0.9	0.402	0.358	0.344	0.338	0.265	0.289	0.299	0.289	0.28	0.448	0.43	0.413	0.427
NCI-H1993	0.559	0.643	0.693	0.699	0.668	0.587	0.518	0.639	0.463	0.55	0.885	0.783	0.695	0.848	0.523	0.441	0.524	0.508
NCI-H2009	1.18	1.19	1.12	0.969	0.999	0.404	0.36	0.313	0.32	0.291	0.94	0.759	0.815	0.711	0.511	0.52	0.475	0.55
NCI-H2023	0.678	0.597	0.619	0.747	0.722	0.292	0.229	0.24	0.228	0.252	0.284	0.193	0.217	0.262	0.529	0.417	0.368	0.501
NCI-H2085	0.922	1	1.02	1.06	1.12	0.534	0.563	0.569	0.575	0.609	0.553	0.419	0.455	0.44	0.852	0.797	0.706	0.747
NCI-H2087	1.18	1.02	0.95	0.743	0.858	0.267	0.153	0.184	0.137	0.146	1.06	0.881	0.652	0.997	0.553	0.451	0.467	0.608
NCI-H2126	0.74	0.794	0.708	0.75	0.731	0.567	0.571	0.632	0.606	0.593	0.506	0.499	0.474	0.533	0.521	0.511	0.524	0.556
NCI-H2170	0.785	0.907	0.833	0.791	1.16	0.448	0.483	0.446	0.439	0.456	0.305	0.279	0.316	0.297	0.429	0.427	0.424	0.464
NCI-H2347	1.11	1.06	0.929	0.918	1.21	0.522	0.605	0.582	0.613	0.36	0.708	0.636	0.694	0.783	0.451		0.396	0.403
NCI-H2405	0.709	0.745	0.884	0.998	0.902	0.552	0.53	0.488	0.495	0.408	0.5	0.443	0.422	0.537	0.407	0.377	0.415	0.405
NCI-H3122	0.879	1	0.745	1.12	0.839	0.307	0.21	0.221	0.239	0.161	0.711	0.583	0.636	0.707	0.435	0.328	0.378	0.411
PC-3 [JPC-3]	1.07	0.998	1.1	1.05	1.03	0.86	0.813	0.924	0.827	0.642	0.747	0.674	0.63	0.877	0.534	0.481	0.436	0.467
PC-14	1.08	0.982	0.911	1.01	1.02	0.255	0.228	0.168	0.19	0.166	1.15	0.823	0.566	0.752	0.653	0.55	0.716	0.698
RERF-LC-KJ	0.851	0.779	0.928	0.675	0.852	0.698	0.708	0.644	0.647	0.688	0.576	0.571	0.522	0.44	0.495	0.447	0.369	0.434
SK-LU-1	1.14	0.934	0.917	0.774	0.712	0.549	0.55	0.505	0.577	0.391	0.661	0.58	0.502	0.789	0.777	0.417	0.384	0.743
SK-MES-1	0.997	0.919	0.918	0.886	0.849	0.448	0.379	0.434	0.43	0.338	0.354	0.353	0.336	0.401	0.783	0.592	0.594	0.667
SW 1573	0.844	0.656	0.772	0.741	0.718	0.503	0.445	0.435	0.408	0.374	0.621	0.545	0.49	0.495	0.438	0.359	0.378	0.37
